Reference: patent US6423541B1, “Process for in vitro selection of high methol producing genotypes” (Council of Scientific&Industrial Reaearch, priority 2000, dated 2002)

Legend:
Type in all cases: cell-based
[1] = test system: regenerated shoots of Mentha arvensis variety Kalka; test: Survival of in vitro raised shoots on menthol containing MS basal medium
Text: (§1) The plant varieties analysed were Himalaya, Shivalik, Gomti, MAS-1, Kosi, Kalka of Mentha arvensis L. (2n=96). The suckers of these plant varieties were obtained from CIMAP's national gene bank for medicinal and aromatic plants for planting. The explant materials were collected from the field grown plants and surface sterilized by washing sequentially with 2% detergent, distilled water containing a few drops of Savlon (Johnson and Johnson, India), 0.1% acidified mercuric chloride and autoclaved distilled water before inoculation. About 1 cm long internodal pieces were inoculated in the MS medium (Murasighe and Skoog, 1962) containing vitamins, 100 mg l^−1 myo-inositol 3% wv^−1 sucrose, 1.5% wv^−1 agar (Difco), 0.5 .μg ml^−1 of an auxin, (NAA, 1-napthalene acetic acid) and 5 μg ml^−1 of a cytokinin (BAP, benzyl aminopurine) (Shasany et al, 1998). The cultures were grown at 25±2° C. and 400 to 600 lux light intensity with 16 h photoperiod. The regenerated shoots were separated 12 weeks after the explant inoculation for rooting and/or testing menthol tolerance.
(§2) The regenerated shoots (3-4 cm long, containing the apical bud and 2-3 nodes) separated after 12 weeks, were inoculated into MS basal medium with or without menthol (0 to 100 μg ml^−1). Concentration of menthol in each treatment was stepped up by 10 μg in a sequential manner. On each kind of these media, 5 independently regenerated shoots were inoculated per flask; 4 flasks were inoculated per replication and each treatment was replicated 5 times, making the number of flasks to 20 and number of explants to 100 for each concentration of menthol. The experiment was conducted in the completely randomized design (CRD) fashion. Cultures were incubated and maintained at 25±2° C. and 400-600 lux light intensity with 16-hour photoperiod. The wilting response and lethality in explants was recorded every 24 hours over a period of one week.

[2] = test system: regenerated shoots of Mentha arvensis variety Kosi; test: as above
Text: as §1, §2

[3] = test system: regenerated shoots of Mentha arvensis variety Gomti; test: as above
Text: as §1, §2

[4] = test system: regenerated shoots of Mentha arvensis variety Himalaya; test: as above
Text: as §1, §2

[5] = test system: regenerated shoots of Mentha arvensis variety Shivalik; test: as above
Text: as §1, §2

[6] = test system: regenerated shoots of Mentha arvensis varieties; test: whole plant or invertebrate; details: 168 h, read-out: mortality of shoots
Text: as §1
The regenerated shoots (3-4 cm long, containing the apical bud and 2-3 nodes) separated after 12 weeks, were inoculated into MS basal medium with or without menthol (0 to 100 μg ml^−1). […] The wilting response and lethality in explants was recorded every 24 hours over a period of one week.

[7] = 100-ppm menthol, twenty-four hours after incubation
[8] = menthol 10 μg ml^−1, 20 shoots tested per replication
[9] = menthol 20 μg ml^−1, 20 shoots tested per replication
[10] = menthol 30 μg ml^−1, 20 shoots tested per replication
[11] = menthol 40 μg ml^−1, 20 shoots tested per replication
[12] = menthol 50 μg ml^−1, 20 shoots tested per replication
[13] = menthol 60 μg ml^−1, 20 shoots tested per replication
[14] = menthol 70 μg ml^−1, 20 shoots tested per replication
[15] = menthol 80 μg ml^−1, 20 shoots tested per replication
[16] = menthol 90 μg ml^−1, 20 shoots tested per replication
[17] = menthol 100 μg ml^−1, 20 shoots tested per replication

## CC1CCC(C(C)C)C(O)C1 (stereo not shown) [menthol]
[1]; [7]
  lethality: 98%
[1]; menthol 10 μg ml^−1
  Survival after 7 days Number: 20.0 ± 0.00
[1]; [8]
  Survival after 24 hours Number: 20.0 ± 0.00
[1]; menthol 20 μg ml^−1
  Survival after 7 days Number: 20.0 ± 0.00
[1]; [9]
  Survival after 24 hours Number: 20.0 ± 0.00
[1]; menthol 30 μg ml^−1
  Survival after 7 days Number: 20.0 ± 0.00
[1]; [10]
  Survival after 24 hours Number: 20.0 ± 0.00
[1]; menthol 40 μg ml^−1
  Survival after 7 days Number: 17.6 ± 0.66
[1]; [11]
  Survival after 24 hours Number: 20.0 ± 0.00
[1]; menthol 50 μg ml^−1
  Survival after 7 days Number: 13.8 ± 0.86
[1]; [12]
  Survival after 24 hours Number: 19.4 ± 0.52
[1]; menthol 60 μg ml^−1
  Survival after 7 days Number: 10.0 ± 0.91
[1]; [13]
  Survival after 24 hours Number: 17.0 ± 0.41
[1]; menthol 70 μg ml^−1
  Survival after 7 days Number: 4.0 ± 0.81
[1]; [14]
  Survival after 24 hours Number: 11.0 ± 0.58
[1]; menthol 80 μg ml^−1
  Survival after 7 days Number: 0.0 ± 0.00
[1]; [15]
  Survival after 24 hours Number: 6.0 ± 0.82
[1]; menthol 90 μg ml^−1
  Survival after 7 days Number: 0.0 ± 0.00
[1]; [16]
  Survival after 24 hours Number: 3.0 ± 0.36
[1]; menthol 100 μg ml^−1
  Survival after 7 days Number: 0.0 ± 0.00
[1]; [17]
  Survival after 24 hours Number: 0.4 ± 0.26
[2]; [7]
  lethality: 99%
[2]; menthol 10 μg ml^−1
  Survival after 7 days Number: 20.0 ± 0.00
[2]; [8]
  Survival after 24 hours Number: 20.0 ± 0.00
[2]; menthol 20 μg ml^−1
  Survival after 7 days Number: 20.0 ± 0.00
[2]; [9]
  Survival after 24 hours Number: 20.0 ± 0.00
[2]; menthol 30 μg ml^−1
  Survival after 7 days Number: 20.0 ± 0.00
[2]; [10]
  Survival after 24 hours Number: 20.0 ± 0.00
[2]; menthol 40 μg ml^−1
  Survival after 7 days Number: 18.0 ± 0.41
[2]; [11]
  Survival after 24 hours Number: 20.0 ± 0.00
[2]; menthol 50 μg ml^−1
  Survival after 7 days Number: 10.0 ± 0.52
[2]; [12]
  Survival after 24 hours Number: 17.0 ± 0.41
[2]; menthol 60 μg ml^−1
  Survival after 7 days Number: 8.0 ± 0.82
[2]; [13]
  Survival after 24 hours Number: 15.0 ± 0.91
[2]; menthol 70 μg ml^−1
  Survival after 7 days Number: 1.0 ± 0.40
[2]; [14]
  Survival after 24 hours Number: 7.0 ± 0.82
[2]; menthol 80 μg ml^−1
  Survival after 7 days Number: 0.0 ± 0.00
[2]; [15]
  Survival after 24 hours Number: 3.0 ± 0.41
[2]; menthol 90 μg ml^−1
  Survival after 7 days Number: 0.0 ± 0.00
[2]; [16]
  Survival after 24 hours Number: 2.0 ± 0.32
[2]; menthol 100 μg ml^−1
  Survival after 7 days Number: 0.0 ± 0.00
[2]; [17]
  Survival after 24 hours Number: 0.2 ± 0.32
[3]; [7]
  lethality: 99%
[3]; menthol 10 μg ml^−1
  Survival after 7 days Number: 20.0 ± 0.00
[3]; [8]
  Survival after 24 hours Number: 20.0 ± 0.00
[3]; menthol 20 μg ml^−1
  Survival after 7 days Number: 20.0 ± 0.00
[3]; [9]
  Survival after 24 hours Number: 20.0 ± 0.00
[3]; menthol 30 μg ml^−1
  Survival after 7 days Number: 20.0 ± 0.00
[3]; [10]
  Survival after 24 hours Number: 20.0 ± 0.00
[3]; menthol 40 μg ml^−1
  Survival after 7 days Number: 16.8 ± 0.48
[3]; [11]
  Survival after 24 hours Number: 20.0 ± 0.00
[3]; menthol 50 μg ml^−1
  Survival after 7 days Number: 7.0 ± 0.41
[3]; [12]
  Survival after 24 hours Number: 16.0 ± 0.90
[3]; menthol 60 μg ml^−1
  Survival after 7 days Number: 4.0 ± 0.57
[3]; [13]
  Survival after 24 hours Number: 12.0 ± 0.71
[3]; menthol 70 μg ml^−1
  Survival after 7 days Number: 0.4 ± 0.32
[3]; [14]
  Survival after 24 hours Number: 6.0 ± 0.32
[3]; menthol 80 μg ml^−1
  Survival after 7 days Number: 0.0 ± 0.00
[3]; [15]
  Survival after 24 hours Number: 1.6 ± 0.31
[3]; menthol 90 μg ml^−1
  Survival after 7 days Number: 0.0 ± 0.00
[3]; [16]
  Survival after 24 hours Number: 1.0 ± 0.41
[3]; menthol 100 μg ml^−1
  Survival after 7 days Number: 0.0 ± 0.00
[3]; [17]
  Survival after 24 hours Number: 0.2 ± 0.26
[4]; [7]
  lethality: 100%
[4]; menthol 10 μg ml^−1
  Survival after 7 days Number: 20.0 ± 0.00
[4]; [8]
  Survival after 24 hours Number: 20.0 ± 0.00
[4]; menthol 20 μg ml^−1
  Survival after 7 days Number: 20.0 ± 0.00
[4]; [9]
  Survival after 24 hours Number: 20.0 ± 0.00
[4]; menthol 30 μg ml^−1
  Survival after 7 days Number: 20.0 ± 0.00
[4]; [10]
  Survival after 24 hours Number: 20.0 ± 0.00
[4]; menthol 40 μg ml^−1
  Survival after 7 days Number: 17.6 ± 0.66
[4]; [11]
  Survival after 24 hours Number: 20.0 ± 0.00
[4]; menthol 50 μg ml^−1
  Survival after 7 days Number: 9.0 ± 0.41
[4]; [12]
  Survival after 24 hours Number: 17.0 ± 0.91
[4]; menthol 60 μg ml^−1
  Survival after 7 days Number: 2.0 ± 0.41
[4]; [13]
  Survival after 24 hours Number: 14.0 ± 0.91
[4]; menthol 70 μg ml^−1
  Survival after 7 days Number: 0.2 ± 0.26
[4]; [14]
  Survival after 24 hours Number: 9.0 ± 0.91
[4]; menthol 80 μg ml^−1
  Survival after 7 days Number: 0.0 ± 0.00
[4]; [15]
  Survival after 24 hours Number: 4.0 ± 0.58
[4]; menthol 90 μg ml^−1
  Survival after 7 days Number: 0.0 ± 0.00
[4]; [16]
  Survival after 24 hours Number: 2.0 ± 0.40
[4]; menthol 100 μg ml^−1
  Survival after 7 days Number: 0.0 ± 0.00
[4]; [17]
  Survival after 24 hours Number: 0.0 ± 0.00
[5]; [7]
  lethality: 98%
[5]; menthol 10 μg ml^−1
  Survival after 7 days Number: 20.0 ± 0.00
[5]; [8]
  Survival after 24 hours Number: 20.0 ± 0.00
[5]; menthol 20 μg ml^−1
  Survival after 7 days Number: 20.0 ± 0.00
[5]; [9]
  Survival after 24 hours Number: 20.0 ± 0.00
[5]; menthol 30 μg ml^−1
  Survival after 7 days Number: 20.0 ± 0.00
[5]; [10]
  Survival after 24 hours Number: 20.0 ± 0.00
[5]; menthol 40 μg ml^−1
  Survival after 7 days Number: 18.0 ± 0.41
[5]; [11]
  Survival after 24 hours Number: 20.0 ± 0.00
[5]; menthol 50 μg ml^−1
  Survival after 7 days Number: 11.0 ± 0.41
[5]; [12]
  Survival after 24 hours Number: 18.0 ± 0.91
[5]; menthol 60 μg ml^−1
  Survival after 7 days Number: 5.0 ± 0.71
[5]; [13]
  Survival after 24 hours Number: 15.0 ± 0.11
[5]; menthol 70 μg ml^−1
  Survival after 7 days Number: 2.0 ± 0.32
[5]; [14]
  Survival after 24 hours Number: 8.0 ± 0.91
[5]; menthol 80 μg ml^−1
  Survival after 7 days Number: 0.0 ± 0.00
[5]; [15]
  Survival after 24 hours Number: 4.0 ± 0.41
[5]; menthol 90 μg ml^−1
  Survival after 7 days Number: 0.0 ± 0.00
[5]; [16]
  Survival after 24 hours Number: 2.0 ± 0.41
[5]; menthol 100 μg ml^−1
  Survival after 7 days Number: 0.0 ± 0.00
[5]; [17]
  Survival after 24 hours Number: 0.4 ± 0.32
[6]
  mortality at 80 ppm: 100%
